These results are taken from article PMC5365662, “A Short Double-Stapled Peptide Inhibits Respiratory Syncytial Virus Entry and Spreading” (Antimicrobial Agents and Chemotherapy, 2017).

Molecules are shown by their SMILES. Bridge positions count the residues as written; N and C are the ends. Square brackets hold non-standard residues; d marks the D form. Peptide text beside a SMILES is read from it. R8 = C=CCCCCCC[C@@](C)(N)C(=O)O; S5 = C=CCCC[C@](C)(N)C(=O)O

The subject of data set [1] is recombinant GFP-expressing RSV (strain A2) in A549 cells. It is filed as cell-based, human respiratory syncytial virus. The settings on record: A549 cells, eGFP RSV, GFP-positive cells by FACS 24 h p.i. How it is done: A549 cells were infected with a recombinant green fluorescent protein (GFP)-expressing RSV (strain A2) ([23]), and the inhibitory activity of the peptide was quantified by flow cytometry.
Each peptide was diluted 3 times by 2-fold serial dilutions. eGFP RSV virus at an MOI of 0.5 was used for the infection, and GFP-positive cells were counted by FACS analysis 24 h p.i. The GFP data were normalized to the fluorescence values observed with virus only and plotted as percent inhibition.
Serial 4-fold dilutions of inhibitors were mixed with eGFP-encoding RSV virus ([23]) with a volume of virus required to achieve approximately 50% of infection in medium containing 2% fetal calf serum. The resulting mixture was added to 24-well plates containing A549 cells. Cells were incubated for 2 h at 37°C, the medium was replaced, and cells were incubated for an additional 24 h. Cells were treated with 300 μl of trypsin for 10 min at 37°C, and the detached cells were diluted in 1 ml of culture medium. Following centrifugation at 1,700 rpm, the pellet was resuspended in 300 μl of PBS–1% fetal bovine serum (FBS) (vol/vol) and GFP-positive cells were counted by fluorescence-activated cell sorter (FACS) analysis. The GFP data were normalized to the fluorescence value observed with virus only. The resulting inhibition curves were fitted in Igor Pro as described above.
Background: Flow cytometry measures light scatter and fluorescence of single cells or particles in a stream.

The nature of another data set: circular dichroism. To be noted: 10 mM phosphate; pH 7.5; 25 °C; 50 uM. On the technique in general: Circular dichroism is the unequal absorption of left and right circularly polarised light.
In data set [2] the target is 5HB, a recombinant protein containing 3 HR1 domains covalently attached to 2 HR2 domains. To be noted: competition with fluorescently labeled T108 probe (2 nM), 5HB 50 nM, 10 min preincubation + 30 min room temperature, duplicates.
Data set [3] is described as follows: Far-UV circular dichroism, α-helical content. The data set is classed as physicochemical. To be noted: CD, indicator of α-helical stability. How it is done: The circular dichroism spectra were acquired on a Chirascan spectropolarimeter. The samples were prepared in 10 mM phosphate buffer, pH 7.5, at a peptide concentration of 50 μM. Data were recorded at 25°C by step scan from 180 nm to 260 nm in a 0.5-mm path length quartz cell using 1-nm wavelength increments and a response time of 1 s. The data were converted to per residue molar ellipticity units [θ] (degree per square centimeter per decimole per residue) and smoothed using the Igor Pro software. The percentage of helicity was calculated as described previously ([35]).

As a reminder, the Kd is the constant that tells how readily two partners part at equilibrium. For `CC[C@H](C)[C@H](NC(=O)[C@H](CCCCN)NC(=O)[C@H](CCC(=O)O)NC(=O)[C@H](CC(N)=O)NC(=O)[C@@H](NC(=O)[C@H](CCC(N)=O)NC(=O)[C@]1(C)CCCC=CCCCCCC[C@@](C)(NC(=O)[C@H](CO)NC(=O)[C@@H]2CCCN2C(=O)[C@H](Cc2ccccc2)NC(=O)[C@H](CCC(=O)O)NC(C)=O)C(=O)N[C@@H](CCC(=O)O)C(=O)N[C@@H](Cc2ccccc2)C(=O)N[C@@H](CC(=O)O)C(=O)N[C@@H](C)C(=O)N[C@@H](CO)C(=O)N[C@@H]([C@@H](C)CC)C(=O)N1)C(C)C)C(=O)N[C@@H](CC(N)=O)C(N)=O` [Peptide 1a] (Ac-EFPS[R8]EFDASI[S5]QVNEKIN-NH2; staple 5-12), in data set [1], the “inhibition of RSV-eGFP infection (in words)” value (“inhibition” below) is “none”. In the data set “circular dichroism”, the helicity stood at 14.2%. Besides, in data set [2], the Kd stood at 9.8 ± 1.5 µM.
Take `CC[C@H](C)[C@H](NC(=O)[C@H](CCCCN)NC(=O)[C@]1(C)CCCC=CCCCCCC[C@@](C)(NC(=O)[C@H](CC(=O)O)NC(=O)[C@H](Cc2ccccc2)NC(=O)[C@H](CCC(=O)O)NC(=O)[C@H](CC(=O)O)NC(=O)[C@H](CO)NC(=O)[C@@H]2CCCN2C(=O)[C@H](Cc2ccccc2)NC(=O)[C@H](CCC(=O)O)NC(C)=O)C(=O)N[C@@H](CO)C(=O)N[C@@H]([C@@H](C)CC)C(=O)N[C@@H](CO)C(=O)N[C@@H](CCC(N)=O)C(=O)N[C@@H](C(C)C)C(=O)N[C@@H](CC(N)=O)C(=O)N1)C(=O)N[C@@H](CC(N)=O)C(N)=O` [Peptide 1b] (Ac-EFPSDEFD[R8]SISQVN[S5]KIN-NH2; staple 9-16): the “inhibition” value in data set [1] is “none”. The helicity in the data set “circular dichroism” was 19.8%. In addition, in data set [2], the Kd was 47 ± 6 µM.
For the compound `CC[C@H](C)[C@H](NC(=O)[C@H](CCCCN)NC(=O)[C@H](CCC(=O)O)NC(=O)[C@H](CC(N)=O)NC(=O)[C@@H](NC(=O)[C@H](CCC(N)=O)NC(=O)[C@H](CO)NC(=O)[C@@H](NC(=O)[C@H](CO)NC(=O)[C@H](C)NC(=O)[C@]1(C)CCCC=CCCC[C@](C)(NC(=O)[C@@H]2CCCN2C(=O)[C@H](Cc2ccccc2)NC(=O)[C@H](CCC(=O)O)NC(C)=O)C(=O)N[C@@H](CC(=O)O)C(=O)N[C@@H](CCC(=O)O)C(=O)N[C@@H](Cc2ccccc2)C(=O)N1)[C@@H](C)CC)C(C)C)C(=O)N[C@@H](CC(N)=O)C(N)=O` [Peptide 1d] (Ac-EFP[S5]DEF[S5]ASISQVNEKIN-NH2; staple 4-8), in data set [1], the “inhibition” value is recorded as “none”. This compound had a helicity in the data set “circular dichroism” of 34.3%. In addition, the Kd in data set [2] turned out to be 8 ± 4 µM.
For the compound `CC[C@H](C)[C@H](NC(=O)[C@H](CCCCN)NC(=O)[C@]1(C)CCCC=CCCC[C@](C)(NC(=O)[C@@H](NC(=O)[C@H](CO)NC(=O)[C@]2(C)CCCC=CCCC[C@](C)(NC(=O)[C@H](CO)NC(=O)[C@@H]3CCCN3C(=O)[C@H](Cc3ccccc3)NC(=O)[C@H](CCC(=O)O)NC(C)=O)C(=O)N[C@@H](CCC(=O)O)C(=O)N[C@@H](Cc3ccccc3)C(=O)N[C@@H](CC(=O)O)C(=O)N2)[C@@H](C)CC)C(=O)N[C@@H](CCC(N)=O)C(=O)N[C@@H](C(C)C)C(=O)N[C@@H](CC(N)=O)C(=O)N1)C(=O)N[C@@H](CC(N)=O)C(N)=O` [Peptide 1eg] (Ac-EFPS[S5]EFD[S5]SI[S5]QVN[S5]KIN-NH2; staple 5-9, 12-16), the “θ208/θ222 molar ellipticity ratio” value in data set [3] is approximately 1. In addition, the helicity in the data set “circular dichroism” was determined as 35.3%. In addition, the Kd in data set [2] stood at 24 ± 4 µM.
Turning to `CC[C@H](C)[C@H](NC(=O)[C@H](CCCCN)NC(=O)[C@H](CCC(=O)O)NC(=O)[C@H](CC(N)=O)NC(=O)[C@@H](NC(=O)[C@]1(C)CCCC=CCCC[C@](C)(NC(=O)[C@H](CC(=O)O)NC(=O)[C@H](Cc2ccccc2)NC(=O)[C@H](CCC(=O)O)NC(=O)[C@H](CC(=O)O)NC(=O)[C@H](CO)NC(=O)[C@@H]2CCCN2C(=O)[C@H](Cc2ccccc2)NC(=O)[C@H](CCC(=O)O)NC(C)=O)C(=O)N[C@@H](CO)C(=O)N[C@@H]([C@@H](C)CC)C(=O)N[C@@H](CO)C(=O)N1)C(C)C)C(=O)N[C@@H](CC(N)=O)C(N)=O` [Peptide 1f] (Ac-EFPSDEFD[S5]SIS[S5]VNEKIN-NH2; staple 9-13), in data set [1], the “inhibition” value is “none”. This compound also returned a helicity in “circular dichroism” of 35.2%. Further, in data set [2], the Kd turned out to be 7.4 ± 1.3 µM.
For `CC[C@H](C)[C@@H]1NC(=O)[C@H](Cc2ccccc2)NC(=O)[C@@](C)(NC(=O)[C@H](CC(C)C)NC(=O)[C@H](CO)NC(=O)[C@H](CCC(N)=O)NC(=O)[C@H](CCC(=O)O)NC(C)=O)CCCC=CCCC[C@@](C)(C(=O)N[C@@H](CO)C(=O)N[C@@H](CC(=O)O)C(=O)N[C@@H](CCC(=O)O)C(=O)N[C@@H](CC(C)C)C(=O)N[C@@H](CC(C)C)C(=O)N[C@@H](Cc2c[nH]cn2)C(=O)N[C@@H](CC(N)=O)C(=O)N[C@H](C(N)=O)C(C)C)NC(=O)[C@H](CCCNC(=N)N)NC1=O` [Peptide 3a] (Ac-EQSL[S5]FIR[S5]SDELLHNV-NH2; staple 5-9), in data set [1], the “inhibition” value was “none”. This compound returned a helicity in “circular dichroism” of 33.9%. Moreover, the Kd in data set [2] stood at 5.8 ± 1.8 µM.
As for `CC[C@H](C)[C@@H]1NC(=O)[C@H](Cc2ccccc2)NC(=O)[C@H](C)NC(=O)[C@H](CC(C)C)NC(=O)[C@H](CO)NC(=O)[C@](C)(NC(=O)[C@H](CCC(=O)O)NC(C)=O)CCCCCCC=CCCC[C@@](C)(C(=O)N[C@@H](CO)C(=O)N[C@@H](CC(=O)O)C(=O)N[C@@H](CCC(=O)O)C(=O)N[C@@H](CC(C)C)C(=O)N[C@@H](CC(C)C)C(=O)N[C@@H](Cc2c[nH]cn2)C(=O)N[C@@H](CC(N)=O)C(=O)N[C@H](C(N)=O)C(C)C)NC(=O)[C@H](CCCNC(=N)N)NC1=O` [Peptide 3d] (Ac-E[R8]SLAFIR[S5]SDELLHNV-NH2; staple 2-9), the “inhibition” value in data set [1] is “none”. The compound also gave a helicity in the data set “circular dichroism” of 24.4%. Besides, the Kd in data set [2] was 3.2 ± 2.7 µM.
Consider `CC[C@H](C)[C@H](NC(=O)[C@H](Cc1ccccc1)NC(=O)[C@H](C)NC(=O)[C@H](CC(C)C)NC(=O)[C@H](CO)NC(=O)[C@H](CCC(N)=O)NC(=O)[C@H](CCC(=O)O)NC(C)=O)C(=O)N[C@@H](CCCNC(=N)N)C(=O)N[C@]1(C)CCCCCCC=CCCC[C@@](C)(C(=O)N[C@H](C(N)=O)C(C)C)NC(=O)[C@H](Cc2c[nH]cn2)NC(=O)[C@H](CC(C)C)NC(=O)[C@H](CC(C)C)NC(=O)[C@H](CCC(=O)O)NC(=O)[C@H](CC(=O)O)NC(=O)[C@H](CO)NC1=O` [Peptide 3f] (Ac-EQSLAFIR[R8]SDELLH[S5]V-NH2; staple 9-16), for which, in data set [1], the “inhibition” value is listed as “none”. The helicity in the data set “circular dichroism” worked out at 26.4%. In addition, the equilibrium dissociation constant (Kd) in data set [2] came to 4.1 ± 1.9 µM.
